Experimental data: patent publication US20210163489A1, “PYRAZOLOPYRIMIDINE DERIVATIVES AND THE COMPOSITIONS AND METHODS OF TREATMENT REGARDING THE SAME” (NysnoBio Ireland DAC, priority 2016, published 2021)

Molecular target: T1, Parkin (Homo sapiens, UniProt O60260)
T1 construct: Enzyme 3: Parkin-His tagged 203 μM (10.5 mg/ml)
Test: Parkin pUB auto-ubiquitinylation assay (TR-FRET)
Type: biochemical
Details: activation of pUb activated Parkin; read-out: Auto-ubiq EC50 (μM) [Example 3]
Excerpt: A Parkin pUB Auto-ubiquitinylation Assay is used to evaluate a compound's potency to activate Parkin's ability to Auto-ubiquitinylate itself.
The principle of this assay is that the E3 Ligase Parkin catalyzes the transfer of Ubiquitin to target proteins, but also has the ability to auto-ubiquitinylate itself. The phospho-Ubiquition (pUb) added to the assay alters the Parkin to a state where small molecule activators can enable the Parkin to auto-ubiquitinylate though the E1-E2 cascade reaction. The use of a Eu cryptate Ubiquition and anti 6His-d2 that binds to the His tagged Parkin will give a signal when the Eu cryptate Ubiquition is auto-ubiquitinylate onto the Parkin which can be monitored by TR-FRET.
Similar to the Activity-based probe assay in Example 2, screening for activating compounds can be distinguished from the controls as follows:
100% activation signal=pUb activated Parkin+40 nM control activator in DMSO. 0% activation signal=pUb activated Parkin+DMSO only. Parkin activators can be identified by an increase of the 0% activation signal TR-FRET signal.
• Assay Plate: White 384 well plate (Corning 3572) • Enzyme 1: E1 (Ubiquitin-activating enzyme/UBE1 Boston Biochem E-305) • Enzyme 2: E2 (UBcH7/Ube2L3 Boston Biochem E2-640) • Enzyme 3: Parkin-His tagged 203 μM (10.5 mg/ml) • pUb: Phospho-Ubiquitin (S65) (Boston Biochem U-102) • Eu Cryptate Reagent: Ubiquitin Eu (CisBio 61UBIKLA) • DMSO: DMSO (Sigma-34869-2.5L) • Reaction Buffer: 50 mM HEPES, 50 mM NaCl, 1 mM MgCl2, 0.005% Tween 20, 0.1% • PF-127 (Fisher Scientific 50-310-494), pH 8.5 • Detection Buffer: 50 mM HEPES, 50 mM NaCl, 800 mM KF, 5 mM EDTA, 0.005% • Tween 20, 0.1% PF-127, pH 8.5 • Detection Reagent Z: 13.4 nM Anti-6His-d2 in detection buffer • d2 Reagent: Anti-6His-d2 (CisBio 61HISDLA)
Enzyme Reaction (15 min Pre-Incubation with Parkin, pUb and Activator Only) • Parkin: 196 nM • pUb: 196 nM • DMSO: 1% DMSO • E1: 5 nM • E2: 50 nM • Ubiquitin Eu: 8.8 nM • Reaction time: 120 minutes • Temperature: 22° C. • Total volume: 10 μl reaction
Take 10 μl of Enzyme Reaction above and add 10 μl detection Reagent Z under the following conditions:
Reaction time: 60 minutes
1) Load assay plate wells with 4.9 μl 400.0 nM Parkin, 400 nM pUb in reaction buffer by use of Eppendorf 12-channel pipette. 2) Deliver 0.1 μl 100× activator candidates in DMSO by use of Echo 555 compound dispenser. Highest 100× concentration=100 μm and then twofold dilutions. Add each compound and control in duplicate wells. 3) Spin 1000 rpm, 2 minutes, at room temp. 4) Incubate plate for 15 minutes at room temp. 5) Add 5 μl 10 nM E1, 100 nM E2, 17.6 nM Ubiquitin Eu and 2 mM ATP in Reaction Buffer by use of Eppendorf 12-channel pipette. 6) Spin 1000 rpm, 2 minutes, at room temp. 7) Incubate plate for 120 minutes at room temp. 8) Add 10 μl 13.4 nM anti his d2 in detection buffer by use of Eppendorf 12-channel pipette. 9) Spin 1000 rpm, 2 minutes, at room temp. 10) Incubate plate for 120 minutes at room temp. 11) Read plates on Perkin Elmer Envision instrument with the following parameters:
LANCE dual laser protocol loaded into the Envision® software
Top Mirror: LANCE/DELFIA Duel/Bias (Bar code 446) Emission Filter: APC 665 EM (Bar code 205) 2nd Emission Filter: Europium 615 EM (Bar code 203) Read […] (channel 1) and 615 nm (channel 2) wavelengths on Envision®
Data Analysis: The Data can be read in CSV files. There are two tables in those CSV files, which are the values of 655 nm (channel 1) and 615 nm (channel 2) wavelengths respectively. The data is converted to an HTRF Ratio=(Channel 1/Channel 2)*10,000
The average of all the 0 uM controls (DMSO only)=BKGD (Background—0% activation). Subtract BKGD from each HTRF Ratio value=HTRF-BKGD. The average of all the 100 uM control activator in DMSO controls=Max (100% activation). The following equation is then used to calculate % Activation for each well/candidate as follows: % Activation=(HTRF−BKGD/Max)*100.
XLFIT5 model 205 was applied for the data analysis. […]

T1 sequence (O60260 whole entry, other chains not shown): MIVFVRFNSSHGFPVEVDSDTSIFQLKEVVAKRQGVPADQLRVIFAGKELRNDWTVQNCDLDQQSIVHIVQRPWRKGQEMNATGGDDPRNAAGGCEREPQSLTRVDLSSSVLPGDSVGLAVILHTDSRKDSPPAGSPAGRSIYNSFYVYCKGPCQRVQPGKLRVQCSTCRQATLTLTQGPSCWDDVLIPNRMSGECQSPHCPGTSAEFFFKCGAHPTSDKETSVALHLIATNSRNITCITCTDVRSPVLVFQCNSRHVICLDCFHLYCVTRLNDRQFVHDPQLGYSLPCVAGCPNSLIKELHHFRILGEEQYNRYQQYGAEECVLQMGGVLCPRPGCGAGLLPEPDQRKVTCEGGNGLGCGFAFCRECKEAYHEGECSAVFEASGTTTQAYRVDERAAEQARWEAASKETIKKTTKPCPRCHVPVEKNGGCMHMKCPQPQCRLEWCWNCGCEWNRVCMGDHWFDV

Structure (SMILES)	EC50
Cc1cc(S)n2ncc(-c3cc[nH]c(=O)c3)c2n1 [Compound A3]	> 40 µM
COc1ccc(Cn2ccc(-c3cnn4c(S)cc(C)nc34)cc2=O)cc1 [Compound B3]	> 40 µM
Cc1nc2c(-c3ccccc3)c(C)nn2c(S)c1Cc1ccccn1 [Compound BB, 2,5-dimethyl-3-phenyl-6-(2-pyridylmethyl)pyrazolo[1,5-a]pyrimidine-7-thiol]	8.8 µM
CCCc1cc(S)n2nc(C)c(-c3ccccc3)c2n1 [Compound B]	> 40 µM
Cc1cc(S)n2ncc(-c3ccccc3)c2n1 [Compound C]	> 40 µM
Cc1nn2c(S)c(Cc3ccccc3)cnc2c1-c1ccccc1 [Compound DD, 6-benzyl-2-methyl-3-phenyl-pyrazolo[1,5-a]pyrimidin-7-thiol]	> 40 µM
COc1ccccc1-c1c(C)nn2c(S)cc(C)nc12 [Compound D]	11.7 µM
Cc1nc2c(C#N)c(C)nn2c(O)c1Cc1ccccc1 [Compound GG, 6-benzyl-7-hydroxy-2,5-dimethyl-pyrazolo-[1,5-a]pyrimidine-3-carbonitrile]	> 40 µM
CC(C)(C)c1cc(O)n2ncc(-c3ccc(Cl)cc3)c2n1 [Compound G]	> 40 µM
Cc1ccc(-c2cnn3c(O)cc(C)nc23)cc1 [Compound H3]	> 40 µM
Cc1nn2c(O)c(CC(C)C)cnc2c1-c1ccccc1 [Compound I3]	> 40 µM
CCc1nn2c(S)cc(C)nc2c1-c1ccc(F)cc1 [Compound I]	6.4 µM
COc1ccc(-c2cnn3c(O)cc(C)nc23)cc1 [Compound J3]	> 40 µM
Cc1nn2c(O)c3c(nc2c1-c1ccccc1)CCN(C)C3 [Compound K3]	> 40 µM
Cc1nn2c(S)c3c(nc2c1-c1ccccc1)CCCC3 [Compound K]	> 40 µM
Cc1nc2c(-c3cccnc3)c(C)nn2c(O)c1Cc1ccccc1 [Compound L3]	> 40 µM
Cc1cc(O)n2ncc(-c3cccc(N(C)C)c3)c2n1 [Compound M3]	> 40 µM
Cc1nc2c(C3CCN(C)CC3)c(C)nn2c(S)c1Cc1ccccc1 [Compound N3]	> 40 µM
Cc1nc2c(C3CCN(C)CC3)c(C)nn2c(O)c1Cc1ccccc1 [Compound O3]	> 40 µM
Cc1ccc(-c2cnn3c(O)c4c(nc23)CN(C)CC4)cc1 [Compound P3]	> 40 µM
Cc1cc2nc(C)c(Cc3ccc(Cl)cc3)c(O)n2n1 [Compound P, 6-[(4-chlorophenyl)methyl]-2,5-dimethyl-pyrazolo[1,5-a]pyrimidin-7-ol]	20.1 µM
Cc1cc2nc(C)c(Cc3ccc(Cl)cc3)c(S)n2n1 [Compound R, 6-[(4-chlorophenyl)methyl]-2,5-dimethyl-pyrazolo[1,5-a]pyrimidine-7-thiol]	> 40 µM
Cc1nn2c(O)c(Cc3ccccc3)cnc2c1-c1ccccc1 [Compound V, 6-benzyl-2-methyl-3-phenyl-pyrazolo[1,5-a]pyrimidin-7-ol]	> 40 µM
Oc1c(Cc2ccccc2)cnc2c(-c3ccccc3)cnn12 [Compound W, 6-benzyl-3-phenyl-pyrazolo[1,5-a]pyrimidin-7-ol]	> 40 µM
Cc1nc2c(-c3ccccc3)c(C)nn2c(O)c1Cc1ccncc1 [Compound X, 2,5-dimethyl-3-phenyl-6-(4-pyridylmethyl)pyrazolo[1,5-a]pyrimidin-7-ol]	> 40 µM
Cc1nc2c(-c3ccccc3)c(C)nn2c(O)c1Cc1ccccn1 [Compound Y, 2,5-dimethyl-3-phenyl-6-(2-pyridylmethyl)pyrazolo[1,5-a]pyrimidin-7-ol]	> 40 µM

Structure (SMILES)	EC50
Sc1c(Cc2ccccc2)cnc2c(-c3ccccc3)cnn12 [Compound Z, 6-benzyl-3-phenyl-pyrazolo[1,5-a]pyrimidin-7-thiol]	> 40 µM
Cc1nc2c(C(=O)N(C)C)c(C)nn2c(O)c1Cc1ccccc1 [EE]	> 40 µM
Cc1nc2c(-c3ccccn3)c(C)nn2c(O)c1Cc1ccccc1 [FF]	> 40 µM
Cc1nn2c(O)cc(C(C)(C)C)nc2c1-c1ccc(Cl)cc1 [F]	> 40 µM
Cc1nc2c(-c3ccccn3)c(C)nn2c(S)c1Cc1ccccc1 [HH]	> 40 µM
Cc1nn2c(S)cc(C(C)C)nc2c1-c1ccccc1 [H]	> 40 µM
Cc1nc2c(C(=O)N(C)C)c(C)nn2c(S)c1Cc1ccccc1 [II]	> 40 µM
Cc1nc2c(C(F)(F)F)c(C)nn2c(O)c1Cc1ccccc1 [JJ]	> 40 µM
CC(C)(C)c1cc(O)n2ncc(-c3ccccc3)c2n1 [J]	13.4 µM
Cc1nc2c(C(F)(F)F)c(C)nn2c(S)c1Cc1ccccc1 [LL]	16.5 µM
Cc1nc2c(-c3ccncc3)c(C)nn2c(S)c1Cc1ccccc1 [MM]	> 40 µM
Cc1cc(O)n2nc(C)c(-c3ccc(Cl)cc3)c2n1 [M]	> 40 µM
Cc1cc(C)c2c(n1)nn1c(O)c(Cc3ccccc3)c(C)nc21 [NN]	> 40 µM
Cc1cc(S)n2nc(C)c(-c3ccc(Cl)cc3)c2n1 [N]	> 40 µM
Cc1nc2c(C#N)c(C)nn2c(S)c1Cc1ccccc1 [OO]	> 40 µM
Cc1cc(S)n2nc(C)c(-c3ccccc3)c2n1 [O]	> 40 µM
Cc1cc(O)n2ncc(-c3ccc(F)cc3)c2n1 [PP]	> 40 µM
Cc1nc2c(-c3ccccc3)c(C)nn2cc1Cc1ccccc1 [QQ]	> 40 µM
Cc1cc2nc(C)c(Cc3ccccc3)c(O)n2n1 [Q]	> 40 µM
Cc1cc(C)c2c(n1)nn1c(S)c(Cc3ccccc3)c(C)nc21 [RR]	> 40 µM
Cc1cc2nc(C)c(Cc3ccccc3)c(S)n2n1 [S]	> 40 µM
Cc1nc2c(-c3ccccc3)c(C)nn2c(O)c1Cc1ccccc1 [T]	> 40 µM
Cc1cc(S)n2ncc(-c3cnn(C)c3)c2n1 [VV]	> 40 µM
Cc1nn2c(S)c3c(nc2c1-c1ccccc1)CCOC3 [WW]	> 40 µM
Cc1nn2c(S)c3c(nc2c1-c1ccccc1)COC3 [XX]	> 40 µM
CNc1c2c(nc3c(-c4ccccc4)c(C)nn13)CCN(C)C2 [YY]	> 40 µM
